From patent publication US20260374773A1, “MULTI-CYCLIC IRAK AND FLT3 INHIBITING COMPOUNDS AND USES THEREOF” (CHILDREN'S HOSPITAL MEDICAL CENTER, priority 2022, published 2026)

Assays:
Menin-KMT2A (MLL) = conditions: pre-clinical studies; cited from earlier work
AML cell lines = conditions: combined with a concentration of an exemplary IRAK inhibitor; cited from earlier work
E-selectin = conditions: with chemotherapy; AML mouse models; cited from earlier work
THP1 cells = assay: Combination drug screening with venetoclax, Cell Titer Glo, THP1; assay type: cell-based; conditions: compound 0-20 μM, venetoclax 0-2 μM, 10 × 10, 48 h, negative = synergy
Description: (§1) Combination drug therapy has the potential to produce enhanced effects with lower side effects not obtained using either agent alone, or beyond the additive effect of the different concentrations of the two different agents. To determine whether enhanced effects are observed in different drug combinations, combination drug screening was performed as previously described (Mathews-Griner, L. A. et al., Proc. Nat. Acad. Sci., 2014, 111:2349-2354; Lin, G. L. et al., Sci. Trans. Med., 2019, 11: eaaw0064). Briefly, 10 nL of compounds were acoustically dispensed into 1536-well white polystyrene tissue culture-treated plates with an Echo 550 acoustic liquid handler (Labcyte). Cells were then added to compound-containing plates at a density of 500-cells/well in 5 μL of medium. A 10-point custom concentration range was used for all listed drugs in a 10×10 matrix. Plates were incubated for 48 hours at standard incubator conditions covered by a stainless steel gasketed lid to prevent evaporation. 48 hours post compound addition, 3 μL of Cell Titer Glo (Promega) were added to each well and plates were incubated at room temperature for 15 minutes with the stainless-steel lid in place. Luminescence readings were taken using a Viewlux imager (PerkinElmer) with a 2 second exposure time per plate.
(§2) Each compound was studied in combination with venetoclax at two concentration ranges of compound and venetoclax, respectively (for a total of 4 combination dose-response curves). The dose combinations that yielded the optimal synergy score, measured as excess HSA, which are reported in Tables 23 and 24 for the FLT3 mutant cell line MOLM14 (D835Y) and the FLT3 WT cell line THP1, respectively.
(§3) Table 24 provides combination outcomes for representative compounds with venetoclax in the Cell Titer Glo assay in THP1 (FLT3 wild type) cells at 48 hours. The table provides relative excess HSA values for compounds of the disclosure used in combination with venetoclax compared to gilteritinib hemifumarate used in combination with venetoclax. A negative excess HSA score illustrates that the drug combination is better than either drug alone, wherein greater synergy is observed at larger negative values of the excess HSA score.
(§4) Excess HSA is a measure of synergy vs. additivity or antagonism, wherein a negative excess HSA value is indicative of synergy. More information on excess HSA scores can be found in Vlot, Anna H. C. et al., Drug Discovery Today, 2019, 24(12):2286-2298. […] However, different methodologies may yield different numerical scores, and different definitions of what constitutes a deviation from mere additivity vs true drug synergy. The large negative excess HSA values provided in Tables 23 and 24 illustrate that multiple members of this structural class synergize with venetoclax. The degree to which combination therapy has to potential to produce enhanced effects with lower side effects not obtained using either agent alone, or beyond the additive effect of the different concentrations of the two different agents depends on the nature of the drugs used in the combination, and the specific doses/concentrations at which they are ultimately used in the therapeutic regimen. A negative excess HSA score illustrates that the drug combination is better than either drug alone (at the concentrations being studied). […] However, the utility in certain drug combinations vs. others should not be distinguished based on cutoffs between excess HSA scores, because the score itself is only a relative indicator that is completely dependent on experimental design and is not an absolute number. Furthermore, the concept of what constitutes clinically meaningful drug synergy is something that is still being debated, not only between pharmacologists and physicians, but amongst pharmacologists themselves. […]

MOLM14 (D835Y) cells = assay: Combination drug screening with venetoclax, Cell Titer Glo, MOLM14 (D835Y); assay type: cell-based; design: key: relative excess HSA score; more negative = greater synergy; conditions: compound 0-0.5 μM, venetoclax 0-20 μM, 10 × 10, 48 h, negative = synergy
Description: as §1, §2
as §3, with “23” for “24”, “MOLM14 (D835Y)” for “THP1 (FLT3 wild type)”, “cells (a FLT3 mutant cell line)” for “cells”
as §4

[1] = tested on: subjects with myelodysplastic syndrome; conditions: after receiving azacitidine; cited from earlier work

## CCN(C(=O)c1cc(F)ccc1Oc1cncnc1N1CC2(CCN(C[C@H]3CC[C@H](NS(=O)(=O)CC)CC3)CC2)C1)C(C)C [SNDX-5613]
Menin-KMT2A (MLL)
  pharmacokinetic properties: excellent pharmacokinetic properties
  toxicity profile: low toxicity profiles

## CC1(C)CCC(CN2CCN(c3ccc(C(=O)NS(=O)(=O)c4ccc(NCC5CCOCC5)c([N+](=O)[O-])c4)c(Oc4cnc5[nH]ccc5c4)c3)CC2)=C(c2ccc(Cl)cc2)C1 [venetoclax]
AML cell lines
  increase of potency of venetoclax: ~ 50 -fold

## CNc1nc(NC2CCN(Cc3ccc4c(cc(C#N)n4C[C@H](C)N4CCN(S(C)(=O)=O)CC4)c3C)CC2)c2cc(CC(F)(F)F)sc2n1 [KO-539]
Menin-KMT2A (MLL)
  pharmacokinetic properties: excellent pharmacokinetic properties
  toxicity profile: low toxicity profiles

## CC[C@H]1C[C@@H](C(=O)NCCNC(=O)CCOCCOCCOCCOCCOCCOCCOCCOCCOCCOCCOCCOC)C[C@@H](O[C@@H]2O[C@H](CO)[C@H](O)[C@H](O[C@@H](CC3CCCCC3)C(=O)O)[C@H]2NC(C)=O)[C@@H]1O[C@@H]1O[C@@H](C)[C@@H](O)[C@@H](O)[C@@H]1O [Uproleselan]
E-selectin
  duration of mouse survival over chemotherapy alone: doubling the duration of mouse survival over chemotherapy alone

## CCc1nc(C(N)=O)c(Nc2ccc(N3CCC(N4CCN(C)CC4)CC3)c(OC)c2)nc1NC1CCOCC1 [Gilteritinib hemifumarate, Gilteritinib, reference compound]
THP1 cells
  Excess HSA: −1626
MOLM14 (D835Y) cells
  Excess HSA: −1556

## Nc1ncn([C@@H]2O[C@H](CO)[C@@H](O)[C@H]2O)c(=O)n1 [azacitidine]
[1]
  patients who required blood transfusions and no longer needed them: about two-thirds
